Key:
[1] = system: PPARα target gene (ACO and CPT-1) expression; test: PPARα target gene (ACO and CPT-1) expression by quantitative RT-PCR in Hepa 1-6 cells; assay type: cell-based; conditions: Hepa 1-6 mouse hepatoma cells, 24 h, serum-free DMEM
Method: RT-PCR gene expression analysis and binding assays were employed to address this objective. Wy14,643, 16:0/18:1-GPC, and 18:1/16:0-GPC on PPARα target gene (ACO and CPT-1) expression was measured by quantitative RT-PCR in Hepa 1-6 cells treated for 24 h as in FIG. 6A. Results are mean±SEM of 9 separate experiments. *, P<0.05 compared to control (Ctrl, 80% PBS/20% DMSO).
The C57BL/6 mouse hepatoma cell line Hepa 1-6 (ATCC, CRL-1830) was expanded in DMEM with 10% fetal bovine serum. For experiments, cells were cultured to 50-60% confluence, washed twice with PBS, and the medium was changed to serum-free DMEM supplemented with the various types and concentrations of phosphatidylcholine (sonicated to homogeneity in PBS/1% ethanol/4% fatty acid-free BSA), Wy14,643 (dissolved in 80% PBS/20% DMSO), or vehicle-only solutions. 24 h later, cells were washed, RNA prepared, and ACO and CPT-1 expression levels were determined by quantitative RT-PCR (see FIG. 6). For siRNA experiments, 50-60% confluent cells were treated with siRNAs or their scrambled controls (all diluted in PBS) for 72 h. Following the 72 h siRNA treatment, another set of cells received 16:0/18:1-GPC (using a concentration based on dose-response experiments) for an additional 24 h. Stealth™ siRNA oligonucleotides were used to inhibit the gene expression of mouse ChPT1 ([…]) (SEQ ID NO: 1) and CEPT1 ([…]) (SEQ ID NO: 2) were from Invitrogen (Carlsbad, Calif.).
Total RNA was extracted from Hepa 1-6 cells and liver using Trizol (Invitrogen) and treated with DNase I (RNase-free, Roche Molecular Biochemicals). Reverse transcription to cDNA and real-time quantitative PCR were performed using previously published procedures and primer-probe sequences for ACO and CPT-1 (Chakravarthy et al., 2005). […] Relative mRNA levels were calculated using both the comparative CT and standard curve methods normalized to ribosomal protein L32, an invariant internal control. […]

[2] = target: T1, PPARα ligand binding domain (LBD) (Homo sapiens, UniProt Q07869); test: ALPHASCREEN binding assay, PPARα ligand binding domain
T1 construct: 6xHis; made in house
T1 sequence (Q07869 239-466 limits assumed): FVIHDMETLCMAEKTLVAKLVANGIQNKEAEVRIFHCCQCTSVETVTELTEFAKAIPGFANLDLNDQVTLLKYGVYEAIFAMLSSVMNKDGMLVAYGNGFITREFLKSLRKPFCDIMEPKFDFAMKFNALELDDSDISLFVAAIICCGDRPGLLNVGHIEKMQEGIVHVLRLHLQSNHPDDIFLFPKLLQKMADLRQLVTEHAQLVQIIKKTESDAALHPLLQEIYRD
Method: Binding of 16:0/18:1-GPC and known agonists to the ligand binding domain (LBD) of PPARα in the presence of various peptide motifs was determined by ALPHASCREEN™ assay (Proc Natl Acad Sci USA 105, pp. 5034-5039, 2008). Experiments used 100 nM receptor LBD, purified as 6× His tag fusion proteins (Mol Cell 17, pp. 491-502, 2005), and 20 nM of N-terminal biotinylated CBP1 peptide or other coactivator peptides in the presence of 5 μg/ml donor and acceptor beads in 50 mM MOPS (pH 7.4), 100 mM NaCl, and 0.1 mg/ml BSA for 90 min at 25° C. Signals were generated in the absence or the presence of ligand. Identical experiments were performed using the PPARδ and PPARγ LBDs.
Stealth™ siRNA oligonucleotides were used to inhibit the gene expression of mouse ChPT1 ([…]) (SEQ ID NO: 1) and CEPT1 ([…]) (SEQ ID NO: 2) were from Invitrogen (Carlsbad, Calif.). […] Expression of ACO and CPT-1 was also assessed 24 h after addition of 50 μM 16:0/18:1-GPC in a subset of Hepa 1-6 cells previously treated with CEPT1 siRNA. mRNA levels are normalized to control L32 ribosomal mRNA. […] FIGS. 6F-H show the binding of various peptide motifs to the purified PPARα (FIG. 6F), PPARδ (FIG. 6G), and PPARγ (FIG. 6H) LBD in the presence of 5 μM of the corresponding PPAR agonist or 16:0/18:1-GPC as measured by AlphaScreen assays. […]

[3] = system: hepatic steatosis; test: Portal vein infusion, liver fat / triglyceride content in zero fat diet and fasting fatty liver model; assay type: in vivo, mouse

Compound: CCCCCCCC/C=C\CCCCCCCC(=O)O[C@H](COC(=O)CCCCCCCCCCCCCCC)COP(=O)([O-])OCC[N+](C)(C)C [16:0/18:1-GPC, 1-palmitoyl-2-oleoyl-sn-glycerol-3-phosphocholine]
- expression of PPARα-dependent genes ACO and CPT-I [1]: induces PPARα-dependent gene expression
- expression of PPARα-dependent genes ACO and CPT-I ([1]; listed as 1-palmitoyl-2-oleoyl-sn-glycerol-3-phosphocholine): increased expression of both ACO and CPT-I to a similar degree as equimolar amounts of the known PPARα activator Wy14,643
- binding affinity to PPARα compared with Wy14,643 [2]: binds with sufficient affinity to PPARα comparable to Wy14,643
- liver lipid content ([3]; PPARα-deficient mice, 10 mg/kg intraportal three times a day, 5 days ZFD, 24 h fast): unaffected
- liver fat content ([3]; control (C57/BL6) mice, 10 mg/kg intraportal three times a day, 5 days ZFD, 24 h fast, vs vehicle): decreased
- effect of intraperitoneal administration ([3]; intraperitoneal route, preliminary results (data not shown)): no effect
